Assay results from patent publication US11104633B2, “Cancer treatment using compounds that selectively target polyploid cancer cells for disruption” (Chengdu Anticancer Bioscience, Ltd., priority 2017, dated 2021).

How the values were obtained:
RPE-MYC cells [1] = experiment: VX-680-induced cell death in RPE-MYC cells and derivatives; type: cell-based
Description: (§1) The p53 function in RPE-Myc cells can be interfered with by either a small molecule inhibitor of p53, PFT-a, (FIG. 1A), or a dominant negative p53 mutant (FIG. 1B). […] In contrast, either of these reagents conferred more than 70% protection against the cytotoxicity elicited by hydroxyurea (FIG. 1A-B), confirming that the p53 function was compromised. The conclusion was that p53 was not required for the apoptosis elicited by VX-680 in cells overexpressing MYC.
Survival signals are often mediated by the Ras-PI3K-Akt pathway. Overexpression of an active Hu-Ras^V12 elicited profound senescence in RPE-MYC cells, prevented generation of stable cell lines expressing Hu-Ras^V12, but were able to generate RPE-MYC cells expressing an active allele of MyrAkt. […] Thus, active signaling from Akt enhanced, rather than blocked, the apoptosis elicited by VX-680. The BCL family antiapoptotic factor Bcl2 is a critical regulator of mitochondrion-dependent apoptotic pathway by inhibiting cytochrome C release from mitochondria, whereas XIAP, the most characterized member of the IAP family, has been known to sequester and inactivate active caspases, proteases responsible for apoptosis. The overexpression of Bcl2 or Bcl-xL provided more than 40% protection against the cytotoxicity of VX-680 six days after administration of VX-680 (see, FIGS. 1C and 2) and that overexpression of XIAP has no effect on the MYC-dependent cytotoxicity (FIG. 1C).
Various RPEMYC derivatives used in this study were generated by stably transfecting human RPEMYC cells with a construct that expresses the gene of interest and selecting with 1 μg/ml of puromycin. Breast cancer cell line MD231MYC/Bcl2 was generated by engineering human MDA-MB-231 to stably express MYC and Bcl2. Lung cancer cell line MM-BRAF was created from mouse lung cancer model initiated by BRAF^V600E. All cell lines were cultured in DMEM supplemented with 10% fetal bovine serum and antibiotics at 5% CO2 and 95% air in a humidified incubator.
(§2) Cell death assays in response to drug treatment were performed 24 h after cells were seeded in 24-well plates. Each experiment was done in triplicate and each experiment was repeated at least twice unless indicated otherwise. Dead cells were identified by the trypan blue exclusion assay. All values are expressed as mean±1 SD of the mean.

MM-BRAF cells = experiment: Cell death / polyploidy in parental lung cancer cells; type: cell-based, mouse
RPE-MYC cells [2] = experiment: Hydroxyurea cytotoxicity in RPE-Myc cells (p53 function control); type: cell-based, human; details: p53 inhibition; FIG. 1A
Description: as §1, §2

What does the source list for `Cc1cc(Nc2cc(N3CCN(C)CC3)nc(Sc3ccc(NC(=O)C4CC4)cc3)n2)[nH]n1` [VX-680]?
effect of overexpression of XIAP on the MYC-dependent cytotoxicity (RPE-MYC cells [1]; FIG. 1C): no effect; sensitivity to cytotoxicity, cells expressing Myc and active Akt versus Myc alone (RPE-MYC cells [1]; RPE cells expressing both Myc and active Akt, FIG. 1C): moderately more sensitive; protection against the cytotoxicity by overexpression of Bcl2 or Bcl-xL (RPE-MYC cells [1]; six days after administration, FIGS. 1C and 2): more than 40%; cell death on exposure (MM-BRAF cells; in vitro, FIG. 6A): failed to undergo cell death; induction of multinucleation and polyploidy (MM-BRAF cells; treatment for 4 days, FIG. 6B): all cells became multinucleated and polyploid

How did the “protection from VX-680-induced cell death” value (RPE-MYC cells [1]; p53 inhibition, FIG. 1A) turn out when `Cc1ccc(C(=O)Cn2c3c(sc2=N)CCCC3)cc1` [PFT-a] was run?
Its value is “Neither of these reagents protected”.

What about the “protection against the cytotoxicity elicited by hydroxyurea” value (RPE-MYC cells [2]) of the same compound?
Its value is “more than 70%”.

Which results are given for `COc1cc(Nc2ncc3c(n2)-c2ccc(Cl)cc2C(c2c(F)cccc2OC)=NC3)ccc1C(=O)O` [MLN8237]?
effect on lung cancer cells (MM-BRAF cells; FIG. 6A legend): cytostatic effect; induction of polyploidy (MM-BRAF cells; FIG. 6B legend): develop polyploidy
